Test results reported in paper PMC6255783, “A biophysical study on the mechanism of interactions of DOX or PTX with α-lactalbumin as a delivery carrier” (Scientific Reports, 2018).

Target: T1, α-Lac (α-lactalbumin) (Bos taurus, UniProt P00711)
T1 construct: gene LALBA; native mature protein from bovine milk, type III, calcium depleted (apo form, EDTA buffer); signal peptide absent
T1 sequence (P00711 20-142): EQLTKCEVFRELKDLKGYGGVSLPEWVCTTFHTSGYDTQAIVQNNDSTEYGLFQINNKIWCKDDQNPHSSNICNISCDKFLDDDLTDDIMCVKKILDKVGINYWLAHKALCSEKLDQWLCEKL
Experiment: isothermal titration calorimetry
Assay type: binding
Conditions: 20 mM Tris pH 7, 25 °C, 3.5 mM EDTA (apo form), unreliable (authors urge care: no clear pre- or post-transition, heat does not level off)
Text: isothermal titration calorimetry on α-Lac (α-lactalbumin)

| SMILES | K (M^-1) (up to 3% ethanol, n = 1.8) | K (M^-1) (n = 0.9) |
| --- | --- | --- |
| CC(=O)O[C@H]1C(=O)[C@@]2(C)[C@H]([C@H](OC(=O)c3ccccc3)[C@]3(O)C[C@H](OC(=O)[C@H](O)[C@@H](NC(=O)c4ccccc4)c4ccccc4)C(C)=C1C3(C)C)[C@]1(OC(C)=O)CO[C@@H]1C[C@@H]2O [PTX, paclitaxel] | (14 ± 4.82) × 10^3 M^-1 | – |
| COc1cccc2c1C(=O)c1c(O)c3c(c(O)c1C2=O)C[C@@](O)(C(=O)CO)C[C@@H]3O[C@H]1C[C@H](N)[C@H](O)[C@H](C)O1 [DOX, doxorubicin] | – | (6.7 ± 1.61) × 10^3 M^-1 |
